How the values were obtained:
Test in all cases: relative viability (nuclei count vs DMSO), 5 days (fraction); higher = more cells survive
PC-3 [JPC-3] = system: PC-3 [JPC-3]
In short: (§1)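 Relative viability equals treated-well nuclei counts divided by vehicle-well nuclei counts. Counts came from 4× images of lung cancer cell lines grown in 1536-well plates for 5 days after pin-tool dosing on the day after seeding. Dosing used one drug alone or a fixed anchor-drug dose plus five library-drug doses (not always all listed) in √10 steps, and values are medians of duplicate plates.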

A-427 = system: A-427
In short: as §1

NCI-H1915 = system: NCI-H1915
In short: as §1

NCI-H2347 = system: NCI-H2347
In short: as §1

SK-LU-1 = system: SK-LU-1
In short: as §1

NCI-H1975 = system: NCI-H1975
In short: as §1

NCI-H358 = system: NCI-H358
In short: as §1

HCC-78 = system: HCC-78
In short: as §1

NCI-H1734 = system: NCI-H1734
In short: as §1

LXF-289 = system: LXF-289
In short: as §1

NCI-H2126 = system: NCI-H2126
In short: as §1

NCI-H1755 = system: NCI-H1755
In short: as §1

HCC-15 = system: HCC-15
In short: as §1

RERF-LC-KJ = system: RERF-LC-KJ
In short: as §1

LC-2-ad = system: LC-2-ad
In short: as §1

NCI-H647 = system: NCI-H647
In short: as §1

HOP-62 = system: HOP-62
In short: as §1

SW 1573 = system: SW 1573
In short: as §1

NCI-H1792 = system: NCI-H1792
In short: as §1

NCI-H2228 = system: NCI-H2228
In short: as §1

Nc1ccn([C@@H]2O[C@H](CO)[C@@H](O)[C@@H]2O)c(=O)n1 [Cytarabine] + C[C@@H](Oc1cc(-c2cnn(C3CCNCC3)c2)cnc1N)c1c(Cl)ccc(F)c1Cl [Crizotinib] (partner 1 µM)
relative viability (PC-3 [JPC-3]; first compound 0.005 µM): 0.781
relative viability (PC-3 [JPC-3]; first compound 0.01581 µM): 0.837
relative viability (PC-3 [JPC-3]; first compound 0.05 µM): 0.78
relative viability (PC-3 [JPC-3]; first compound 0.1581 µM): 0.712
relative viability (PC-3 [JPC-3]; first compound 0.5 µM): 0.617
relative viability (A-427; first compound 0.005 µM): 0.605
relative viability (A-427; first compound 0.01581 µM): 0.414
relative viability (A-427; first compound 0.05 µM): 0.149
relative viability (A-427; first compound 0.1581 µM): 0.172
relative viability (A-427; first compound 0.5 µM): 0.173
relative viability (NCI-H1915; first compound 0.005 µM): 0.888
relative viability (NCI-H1915; first compound 0.01581 µM): 0.882
relative viability (NCI-H1915; first compound 0.05 µM): 0.686
relative viability (NCI-H1915; first compound 0.1581 µM): 0.393
relative viability (NCI-H1915; first compound 0.5 µM): 0.333
relative viability (NCI-H2347; first compound 0.005 µM): 0.827
relative viability (NCI-H2347; first compound 0.01581 µM): 0.719
relative viability (NCI-H2347; first compound 0.05 µM): 0.573
relative viability (NCI-H2347; first compound 0.1581 µM): 0.642
relative viability (NCI-H2347; first compound 0.5 µM): 0.467
relative viability (SK-LU-1; first compound 0.005 µM): 0.957
relative viability (SK-LU-1; first compound 0.01581 µM): 0.83
relative viability (SK-LU-1; first compound 0.05 µM): 0.694
relative viability (SK-LU-1; first compound 0.1581 µM): 0.605
relative viability (SK-LU-1; first compound 0.5 µM): 0.398
relative viability (NCI-H1975; first compound 0.005 µM): 0.801
relative viability (NCI-H1975; first compound 0.01581 µM): 1.01
relative viability (NCI-H1975; first compound 0.05 µM): 0.994
relative viability (NCI-H1975; first compound 0.1581 µM): 0.667
relative viability (NCI-H1975; first compound 0.5 µM): 0.373
relative viability (NCI-H358; first compound 0.005 µM): 0.488
relative viability (NCI-H358; first compound 0.01581 µM): 0.5
relative viability (NCI-H358; first compound 0.05 µM): 0.352
relative viability (NCI-H358; first compound 0.1581 µM): 0.319
relative viability (NCI-H358; first compound 0.5 µM): 0.231
relative viability (HCC-78; first compound 0.005 µM): 0.369
relative viability (HCC-78; first compound 0.01581 µM): 0.302
relative viability (HCC-78; first compound 0.05 µM): 0.282
relative viability (HCC-78; first compound 0.1581 µM): 0.26
relative viability (HCC-78; first compound 0.5 µM): 0.2
relative viability (NCI-H1734; first compound 0.005 µM): 0.473
relative viability (NCI-H1734; first compound 0.01581 µM): 0.326
relative viability (NCI-H1734; first compound 0.05 µM): 0.23
relative viability (NCI-H1734; first compound 0.1581 µM): 0.143
relative viability (NCI-H1734; first compound 0.5 µM): 0.157
relative viability (LXF-289; first compound 0.005 µM): 0.745
relative viability (LXF-289; first compound 0.01581 µM): 0.78
relative viability (LXF-289; first compound 0.05 µM): 0.663
relative viability (LXF-289; first compound 0.1581 µM): 0.339
relative viability (LXF-289; first compound 0.5 µM): 0.389
relative viability (NCI-H2126; first compound 0.005 µM): 0.916
relative viability (NCI-H2126; first compound 0.01581 µM): 1.01
relative viability (NCI-H2126; first compound 0.05 µM): 0.96
relative viability (NCI-H2126; first compound 0.1581 µM): 0.78
relative viability (NCI-H2126; first compound 0.5 µM): 0.656
relative viability (NCI-H1755; first compound 0.005 µM): 0.788
relative viability (NCI-H1755; first compound 0.01581 µM): 0.761
relative viability (NCI-H1755; first compound 0.05 µM): 0.565
relative viability (NCI-H1755; first compound 0.1581 µM): 0.265
relative viability (NCI-H1755; first compound 0.5 µM): 0.286
relative viability (HCC-15; first compound 0.005 µM): 0.765
relative viability (HCC-15; first compound 0.01581 µM): 0.895
relative viability (HCC-15; first compound 0.05 µM): 0.84
relative viability (HCC-15; first compound 0.1581 µM): 0.67
relative viability (HCC-15; first compound 0.5 µM): 0.591
relative viability (RERF-LC-KJ; first compound 0.005 µM): 0.853
relative viability (RERF-LC-KJ; first compound 0.01581 µM): 0.845
relative viability (RERF-LC-KJ; first compound 0.05 µM): 0.759
relative viability (RERF-LC-KJ; first compound 0.1581 µM): 0.502
relative viability (RERF-LC-KJ; first compound 0.5 µM): 0.4
relative viability (LC-2-ad; first compound 0.005 µM): 0.416
relative viability (LC-2-ad; first compound 0.01581 µM): 0.544
relative viability (LC-2-ad; first compound 0.05 µM): 0.453
relative viability (LC-2-ad; first compound 0.1581 µM): 0.341
relative viability (LC-2-ad; first compound 0.5 µM): 0.295
relative viability (NCI-H647; first compound 0.005 µM): 0.613
relative viability (NCI-H647; first compound 0.01581 µM): 0.518
relative viability (NCI-H647; first compound 0.05 µM): 0.243
relative viability (NCI-H647; first compound 0.1581 µM): 0.11
relative viability (NCI-H647; first compound 0.5 µM): 0.116
relative viability (HOP-62; first compound 0.005 µM): 0.766
relative viability (HOP-62; first compound 0.01581 µM): 0.49
relative viability (HOP-62; first compound 0.05 µM): 0.379
relative viability (HOP-62; first compound 0.1581 µM): 0.0643
relative viability (HOP-62; first compound 0.5 µM): 0.0736
relative viability (SW 1573; first compound 0.005 µM): 0.83
relative viability (SW 1573; first compound 0.01581 µM): 0.868
relative viability (SW 1573; first compound 0.05 µM): 0.864
relative viability (SW 1573; first compound 0.1581 µM): 0.412
relative viability (SW 1573; first compound 0.5 µM): 0.179
relative viability (NCI-H1792; first compound 0.005 µM): 0.624
relative viability (NCI-H1792; first compound 0.01581 µM): 0.882
relative viability (NCI-H1792; first compound 0.05 µM): 0.861
relative viability (NCI-H1792; first compound 0.1581 µM): 0.53
relative viability (NCI-H1792; first compound 0.5 µM): 0.465
relative viability (NCI-H2228; first compound 0.005 µM): 0.373
relative viability (NCI-H2228; first compound 0.01581 µM): 0.31
relative viability (NCI-H2228; first compound 0.05 µM): 0.218
relative viability (NCI-H2228; first compound 0.1581 µM): 0.124
relative viability (NCI-H2228; first compound 0.5 µM): 0.151

From the supplement of paper PMC10307832
